From patent publication EP0412158A1, “ONCOSTATIC DRUG” (priority 1987, dated 1988)

Assays:
Assay type in all cases: in vivo, female BALB/C mice
[1] = system: methyl cholanthrene A tumor; test: Methyl cholanthrene A tumor, evaluation by weight of tumor (Examples 13 to 16); conditions: for Average weight of tumor / Number of tumorless mice /total number of mice / T/control: 100 mg/kg; for Average weight of tumor / Number of tumorless mice /total number of mice: ip × 9; for T/control: ip×9, tumor weight
Method: Compound E, an alkali metal salt of polymolybdic acid (Example 13), and other compounds (Compounds F to H) mentioned above were severally dissolved in distilled water to obtain aqueous solutions containing the compounds in a fixed concentration of 10 mg/ml. These aqueous solutions were administered to female BALB/C mice (five weeks old) to which methyl cholanthrene A tumor had been transplanted to test the compounds for antineoplastic activity. To be morespecific, the methyl cholanthrene A was transplanted to the mice in a ratio of 1.0 x 10^5 cells per mouse and the aqueous solution was continuously administered (at a dose of 100 mg/kg of body weight) for nine days by intraperitoneal injection. On elapse of 14 days after the stop of the administration, the tumors in the mice were weighed. For comparison, mice to which the aqeuous solution was not administered and the mice to which aminonitrosourea was administered were similarly tested.

[2] = system: methyl cholanthrene A; test: Methyl cholanthrene A tumor, evaluation by elongation of period of survival (Examples 17 to 20); conditions: 100 mg/kg ×9
Method: The aforementioned active compounds, E to H, were severally dissolved in distilled water to obtain aqueous solutions containing the compounds in a fixed concentration of 10 mg/ml. To female BALB/C mice (five weeks old) to which methyl cholanthrene A had been transplanted in a ratio of 1.0 x 10^5 cells per mouse, the aqueous solutions were continuously administered at a dose of 100 mg/kg of body weight for nine days by intraperitoneal injection to determine the mices periods of survival. For comparison, mice to which no aqueous solution was administered and mice to which aminonitrosourea was administered were similarly tested.

[3] = system: methyl cholanthrene A tumor; test: Methyl cholanthrene A tumor, evaluation by size of tumor (Examples 31 to 33); parameters: Average weight of tumor ± SE / Range of average tumor weight after elapse of 21 days ± SE: unit not given here; conditions: 25 mg/kg, ip × 9; for Average weight of tumor ± SE: after elapse of 14 days
Method: A heteropoly acid salt, Na5[IM06O24]•34H2O (Compound M), and other compounds (Compounds N and O ) were severally dissolved in distilled water to obtain aqueous solutions containing the salts in a fixed concentration of 10 mg/ml. To female BALB/C mice (five weeks old) to which methyl cholanthrene A tumor had been transplanted, the aqueous solutions were administered to test the compounds for antineoplastic activity. To be specific, the methyl cholanthrene A was transplanted to the mice at a ratio of 1.0 x 10^5 cells per mouse and the aqueous solutions were administered ([…]) for 9 consecutive days by intraperitoneal injection. On elapse of 14 and 21 days after the stop of the administration, the sizes of tumors in the mice were measured. For comparison, mice to which no aqueous solution was administered and mice to which aminonitrosourea was administered were similarly tested.

[4] = system: methyl cholanthrene A; test: Methyl cholanthrene A tumor, evaluation by elongation of period of survival (Examples 31, 34 and 35); conditions: for Average number of days of survival ±SE / ILS / Number of mice of no tumor/total number of mice: 25 mg/kg, ip × 9; for Number of mice of no tumor/total number of mice: observed 60 days after transplantation; for Change in body weight after elapse of 10 days: mouse, in vivo
Method: The active compounds, M to 0, mentioned above were severally dissolved in distilled water to obtain aqueous solutions containing the compounds in a fixed concentration of 10 mg/ml. To be specific, to female BALB/C mice (five weeks old) to which methyl cholanthrene A had been transplanted in a ratio of 1.0 x 10^5 cells per mouse, […] for 9 consecutive days to determine the mice's periods of survival. For comparison, mice to which no aqueous solution was administered and mice to which aminonitrosourea was administered were similarly tested.

| Molecule | Average weight of tumor [1] | Number of tumorless mice /total number of mice [1] | T/control [1] | toxicity ([1]; 100 mg/kg.ip for nine days, judged by increase of body weight, result in words) | Average number of days of survival [2] | Number of toxically killed mice/total number of mice [2] | Ratio of prolonging life [2] [%] | Average weight of tumor ± SE [3] | T/C ([3]; tumor weight after 14 days) | T/C ([3]; tumor weight after 21 days) | Average number of days of survival ±SE [4] | ILS [4] [%] | Number of mice of no tumor/total number of mice [4] | Change in body weight after elapse of 10 days [4] | Range of average tumor weight after elapse of 21 days ± SE [3] |
| --- | --- | --- | --- | --- | --- | --- | --- | --- | --- | --- | --- | --- | --- | --- | --- |
| O.O.O.O.[K+].[K+].[K+].[K+].[K+].[K+].[O]=[Mo](=[O])([O-])[O][Mo](=[O])(=[O])[O][Mo](=[O])([O-])([O-])[O][Mo](=[O])(=[O])[O][Mo](=[O])([O-])([O-])[O][Mo](=[O])(=[O])[O][Mo](=[O])(=[O])[O-] [Compound E, K6 [Mo7O24] • 4H2O] | 1281.6±184.2(8) mg | 0/8 | 0.498 | very slight toxicity | 35.5±2.2(8) days | 0/8 | 57.8 | – | – | – | – | – | – | – | – |
| O.O.O.O.[Na+].[Na+].[Na+].[Na+].[Na+].[Na+].[O]=[Mo](=[O])([O-])[O][Mo](=[O])(=[O])[O][Mo](=[O])([O-])([O-])[O][Mo](=[O])(=[O])[O][Mo](=[O])([O-])([O-])[O][Mo](=[O])(=[O])[O][Mo](=[O])(=[O])[O-] [Compound F, Na6 [Mo7O24] • 4H2O] | 1592.8±257.6(8) mg | 0/8 | 0.618 | – | 35.0±5.7(8) days | 0/8 | 55.6 | – | – | – | – | – | – | – | – |
| O.O.O.O.[Li+].[Li+].[Li+].[Li+].[Li+].[Li+].[O]=[Mo](=[O])([O-])[O][Mo](=[O])(=[O])[O][Mo](=[O])([O-])([O-])[O][Mo](=[O])(=[O])[O][Mo](=[O])([O-])([O-])[O][Mo](=[O])(=[O])[O][Mo](=[O])(=[O])[O-] [Compound G, Li6 [Mo7O24] • 4H2O] | 1760±254.6(8) mg | 0/8 | 0.683 | – | 31.6±5.4(8****) days | 0/8 | 40.4 | – | – | – | – | – | – | – | – |
| O.O.O.O.[Cs+].[Cs+].[Cs+].[Cs+].[Cs+].[Cs+].[O]=[Mo](=[O])([O-])[O][Mo](=[O])(=[O])[O][Mo](=[O])([O-])([O-])[O][Mo](=[O])(=[O])[O][Mo](=[O])([O-])([O-])[O][Mo](=[O])(=[O])[O][Mo](=[O])(=[O])[O-] [Compound H, Cs6 [Mo7O24] • 4H2O] | 1599.5±340.6(8) mg | 0/8 | 0.621 | – | 32.9±5.5(8) days | 0/8 | 46.2 | – | – | – | – | – | – | – | – |
| Na3H6 [CrMo6O24] • 8H20 [Compound O] | – | – | – | – | – | – | – | 585.6±166.8 (10) | 0.784 | 0.832 | 35.10±3.16(10)*** * days | 41.0 | 0/10 | (+)1.22 | – |
| [NH4]3 H6 [CoMo6O24] • 7H20 [Compound N] | – | – | – | – | – | – | – | 448.5±166.0 (10) | 0.600 | 0.301 | 39.30±3.73(10)*** * days | 57.0 | 2/10 | (+)0.56 | 693.6±144.3 (9) |
